22 compounds from patent US11584714B2 (priority 2018, dated 2023) can be followed below.

Holding throughout (assay type): biochemical
For one experiment, the target named is MASP-2 (CCP1-CCP2-SP) (Homo sapiens (Human), UniProt O00187). Put plainly: biochemical.
The next experiment deals with mMASP-2 (Mus musculus (Mouse), UniProt Q91WP0). Kind of experiment: Enzymatic inhibition of mMASP-2. To be noted: read-out: mMASP-2 Ki.
The target of a further experiment is human α-thrombin (Homo sapiens (Human), UniProt P00734). Kind of experiment: Enzymatic assay for thrombin (Boc-VPR-AMC substrate).
Where [1] appears, read: selectivity for MASP-2 inhibition versus thrombin.

Counter-ions that a name gives are not always drawn. Like-named read-outs stand apart in the source and are kept apart here. Where only a bound is given, the exact number is not on record here.

Chain of MASP-2 (CCP1-CCP2-SP) (O00187 445-686): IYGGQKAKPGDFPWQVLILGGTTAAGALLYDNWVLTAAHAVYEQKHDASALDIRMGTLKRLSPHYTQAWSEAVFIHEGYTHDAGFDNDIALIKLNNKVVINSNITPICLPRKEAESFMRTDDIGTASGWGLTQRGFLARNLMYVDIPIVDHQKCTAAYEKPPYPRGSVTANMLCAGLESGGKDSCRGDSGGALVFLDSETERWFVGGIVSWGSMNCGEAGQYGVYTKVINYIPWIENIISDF
Chain of mMASP-2 (Q91WP0 20-685): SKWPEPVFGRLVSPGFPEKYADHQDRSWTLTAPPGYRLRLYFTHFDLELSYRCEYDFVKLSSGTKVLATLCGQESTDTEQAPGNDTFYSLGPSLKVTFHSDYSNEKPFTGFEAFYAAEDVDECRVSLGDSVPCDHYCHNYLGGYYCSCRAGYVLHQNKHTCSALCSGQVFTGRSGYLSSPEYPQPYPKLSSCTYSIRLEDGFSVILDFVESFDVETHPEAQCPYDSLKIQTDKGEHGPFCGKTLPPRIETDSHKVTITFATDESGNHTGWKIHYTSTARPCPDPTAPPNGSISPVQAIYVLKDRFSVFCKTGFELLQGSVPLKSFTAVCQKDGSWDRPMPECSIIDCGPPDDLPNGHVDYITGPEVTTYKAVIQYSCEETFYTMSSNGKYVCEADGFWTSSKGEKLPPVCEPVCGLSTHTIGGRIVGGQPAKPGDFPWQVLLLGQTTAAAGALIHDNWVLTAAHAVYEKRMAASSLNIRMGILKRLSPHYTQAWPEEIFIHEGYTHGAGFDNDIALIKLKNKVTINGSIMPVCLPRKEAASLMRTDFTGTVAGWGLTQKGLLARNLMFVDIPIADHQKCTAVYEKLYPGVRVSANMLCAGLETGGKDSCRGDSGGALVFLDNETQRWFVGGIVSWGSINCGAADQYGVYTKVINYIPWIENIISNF

As usually defined, the Ki is a dissociation constant, usually derived from enzyme kinetics or from competition with a known ligand. Regarding `Cc1cc(C[C@@H]2CN[C@@H](C(=O)N[C@@H](C)C(=O)NCc3cnc4c(c3)c(Cl)cn4C)C2)ccn1` [compound 1468, Trifluoroacetate], the Ki is under 500 nM on MASP-2 (CCP1-CCP2-SP) (read-out: MASP-2 Ki), under 500 nM on mMASP-2 and over 25 µM on human α-thrombin (read-out: Thrombin Ki). Further, the “MASP-2 vs. thrombin selectivity” value at MASP-2 (CCP1-CCP2-SP) (setting [1]) was “**** (≥100-fold)”.
Regarding `C[C@H](NC(=O)[C@H]1C[C@H](c2ccccc2)CN1)C(=O)NCc1ccc2c(N)noc2c1` [compound 1390, (2R,4R)—N—((S)-1-(((3-Aminobenzo[d]isoxazol-6-yl)methyl)amino)-1-oxopropan-2-yl)-4-phenylpyrrolidine-2-carboxamide Di-trifluoroacetate salt], the figures for the Ki on MASP-2 (CCP1-CCP2-SP), on mMASP-2 and on human α-thrombin (read-out: Thrombin Ki) were 2500 to 10000 nM, over 25000 nM and over 25 µM, respectively.
As to `CC[C@H](NC(=O)[C@H]1C[C@H](c2ccccc2)CN1)C(=O)NCc1ccc(C(=N)N)cc1` [compound 1290, (2R,4R)—N—((S)-1-((4-carbamimidoylbenzyl)amino)-1-oxobutan-2-yl)-4-phenylpyrrolidine-2-carboxamide], the values for the Ki at MASP-2 (CCP1-CCP2-SP) (read-out: MASP-2 Ki), at mMASP-2 and on human α-thrombin (Thrombin Ki (μM)) were under 500 nM, under 500 nM and 0.5 to 2.5 µM, respectively. Further, at MASP-2 (CCP1-CCP2-SP) (setting [1]), the “MASP-2 vs. thrombin selectivity” value was “** (≥5.0 to <25-fold)”.
On to `C[C@H](NC(=O)[C@H](N)CCc1ccccc1)C(=O)NCc1ccnc(N)c1` [compound 1296, (R)-2-Amino-N—((S)-1-(((2-aminopyridin-4-yl)methyl)amino)-1-oxopropan-2-yl)-4-phenylbutanamide Dihydrochloride], for which the Ki is 2500 to 10000 nM at MASP-2 (CCP1-CCP2-SP), over 25000 nM on mMASP-2 and over 25 µM on human α-thrombin (read-out: Thrombin Ki). Further, the “MASP-2 vs. thrombin selectivity” value at MASP-2 (CCP1-CCP2-SP) (setting [1]) is listed as “** (≥5.0 to <25-fold)”.
With `C[C@H](NC(=O)[C@H](N)CCc1ccccc1)C(=O)NCc1ccc(CN)nc1` [compound 1280, (R)-2-Amino-N—((S)-1-(((6-(aminomethyl)pyridin-3-yl)methyl)amino)-1-oxopropan-2-yl)-4-phenylbutanamide], the values for the Ki on MASP-2 (CCP1-CCP2-SP), at mMASP-2 and at human α-thrombin (read-out: Thrombin Ki) were 2500 to 10000 nM, 10000 to 25000 nM and over 25 µM, respectively.
For the compound `Cc1nc(N)ccc1CNC(=O)[C@H](C)NC(=O)[C@H]1CN(c2cccc3ccccc23)CCN1` [compound 1309, (R)—N—((S)-1-(((6-Amino-2-methylpyridin-3-yl)methyl)amino)-1-oxopropan-2-yl)-4-(naphthalen-1-yl)piperazine-2-carboxamide Dihydrochloride], the Ki on MASP-2 (CCP1-CCP2-SP) (read-out: MASP-2 Ki) is under 500 nM; on mMASP-2, under 500 nM; on human α-thrombin (read-out: Thrombin Ki), over 25 µM. Further, the “MASP-2 vs. thrombin selectivity” value on MASP-2 (CCP1-CCP2-SP) (setting [1]) is listed as “**** (≥100-fold)”.
For `Cc1nc(N)ccc1CNC(=O)[C@H](C)NC(=O)[C@H]1C[C@@H](C(C)c2ccccc2)CN1` (mixture of isomers) [compound 1344, (2R,4S)—N—((S)-1-(((6-Amino-2-methylpyridin-3-yl)methyl)amino)-1-oxopropan-2-yl)-4-((±)-1-phenylethyl)pyrrolidine-2-carboxamide Dihydrochloride], the values for the Ki on MASP-2 (CCP1-CCP2-SP) (read-out: MASP-2 Ki), on mMASP-2 and at human α-thrombin (read-out: Thrombin Ki) were under 500 nM, under 500 nM and 2.5 to 10 µM, respectively. Further, the “MASP-2 vs. thrombin selectivity” value at MASP-2 (CCP1-CCP2-SP) (setting [1]) is “**** (≥100-fold)”.
Consider `Cc1nc(N)ccc1CNC(=O)[C@H](C)NC(=O)[C@H]1C[C@@H](c2ccccc2)CCN1CCCC(=O)O` [compound 1439, 4-((2R,4S)-2-(((S)-1-(((6-Amino-2-methylpyridin-3-yl)methyl)amino)-1-oxopropan-2-yl)carbamoyl)-4-phenylpiperidin-1-yl)butanoic acid Trifluoroacetate salt], for which the results for the Ki on MASP-2 (CCP1-CCP2-SP) (read-out: MASP-2 Ki), on mMASP-2 and on human α-thrombin (read-out: Thrombin Ki) were under 500 nM, 2500 to 10000 nM and over 25 µM, respectively.
For `C[C@H](NC(=O)[C@H]1C[C@H](c2ccccc2)CN1)C(=O)NCc1cc(Cl)ccc1-n1ncnn1` [compound 1394, (2R,4R)—N—((S)-1-((5-chloro-2-(2H-tetrazol-2-yl)benzyl)amino)-1-oxopropan-2-yl)-4-phenylpyrrolidine-2-carboxamide Trifluoroacetate], the Ki at MASP-2 (CCP1-CCP2-SP) was 2500 to 10000 nM; on mMASP-2, over 25000 nM; on human α-thrombin (Thrombin Ki (μM)) it was 10 to 25 µM. The “MASP-2 vs. thrombin selectivity” value at MASP-2 (CCP1-CCP2-SP) (setting [1]) was “* (≥1.0 to <5.0-fold)”.
In the case of `CCCCCN[C@H](CCc1ccccc1)C(=O)N[C@@H](C)C(=O)NCc1ccc(C(=N)N)cc1` [compound 1125], the “MASP-2 vs. thrombin selectivity” value at MASP-2 (CCP1-CCP2-SP) (MASP-2 inhibition versus thrombin) is given as “−− (less than 1.0-fold)”. Moreover, the results for the Ki at MASP-2 (CCP1-CCP2-SP) (read-out: MASP-2 Ki), on mMASP-2 and at human α-thrombin (read-out: Thrombin Ki) were under 500 nM, under 500 nM and under 0.5 µM, respectively.
Regarding `Cc1nc(N)ccc1CNC(=O)[C@H](C)NC(=O)[C@H]1C[C@H](Cc2csc(Cl)c2)CN1` [compound 1461, (2R,4S)—N—((S)-1-(((6-Amino-2-methylpyridin-3-yl)methyl)amino)-1-oxopropan-2-yl)-4-((5-chlorothiophen-3-yl)methyl)pyrrolidine-2-carboxamide Dihydrochloride], the figures for the Ki on MASP-2 (CCP1-CCP2-SP) (read-out: MASP-2 Ki), on mMASP-2 and at human α-thrombin (Thrombin Ki (μM)) were under 500 nM, under 500 nM and 0.5 to 2.5 µM, respectively. Also, the “MASP-2 vs. thrombin selectivity” value at MASP-2 (CCP1-CCP2-SP) (setting [1]) was “**** (≥100-fold)”.
Turning to `C[C@H](NC(=O)[C@H]1C[C@H](c2ccccc2)CN1)C(=O)NCc1ccc2[nH]cc(Cl)c2c1` [compound 1362, (2R,4R)—N—((S)-1-(((3-Chloro-1H-indol-5-yl)methyl)amino)-1-oxopropan-2-yl)-4-phenylpyrrolidine-2-carboxamide], the Ki on MASP-2 (CCP1-CCP2-SP) lay within 500 to 2500 nM; at mMASP-2 it was 500 to 2500 nM; at human α-thrombin (Thrombin Ki (μM)) it was 0.5 to 2.5 µM. Besides, the “MASP-2 vs. thrombin selectivity” value at MASP-2 (CCP1-CCP2-SP) (setting [1]) is “* (≥1.0 to <5.0-fold)”.
Regarding `Cc1cc(Cl)cc(CNC(=O)[C@H](C)NC(=O)[C@H]2C[C@H](c3ccccc3)CN2)c1` [compound 1333, (2R,4R)—N—((S)-1-((3-Chloro-5-methylbenzyl)amino)-1-oxopropan-2-yl)-4-phenylpyrrolidine-2-carboxamide Hydrochloride], the Ki on MASP-2 (CCP1-CCP2-SP) is 2500 to 10000 nM; on mMASP-2, 10000 to 25000 nM; on human α-thrombin (read-out: Thrombin Ki), over 25 µM.
With `Cc1nc(N)ccc1CNC(=O)[C@H](C)NC(=O)[C@H]1C[C@H](Cc2ccc(-c3ccc(F)cc3CN)cc2)CN1` [compound 1403, (2R,4S)—N—((S)-1-(((6-Amino-2-methylpyridin-3-yl)methyl)amino)-1-oxopropan-2-yl)-4-((2′-(aminomethyl)-4′-fluoro-[1,1′-biphenyl]-4-yl)methyl)pyrrolidine-2-carboxamide], the figures for the Ki at MASP-2 (CCP1-CCP2-SP) (read-out: MASP-2 Ki), at mMASP-2 and on human α-thrombin (read-out: Thrombin Ki) were under 500 nM, 500 to 2500 nM and over 25 µM, respectively.
As to `Cc1nc(N)ccc1CNC(=O)[C@H](C)NC(=O)[C@H]1C[C@H](Cc2ccc(C)c3ccccc23)CN1` [compound 1479, (2R,4S)—N—((S)-1-(((6-Amino-2-methylpyridin-3-yl)methyl)amino)-1-oxopropan-2-yl)-4-((4-methylnaphthalen-1-yl)methyl)pyrrolidine-2-carboxamide Dihydrochloride], the Ki on MASP-2 (CCP1-CCP2-SP) (read-out: MASP-2 Ki) was under 500 nM; on mMASP-2 it was under 500 nM; on human α-thrombin (Thrombin Ki (μM)), 10 to 25 µM. Further, at MASP-2 (CCP1-CCP2-SP) (setting [1]), the “MASP-2 vs. thrombin selectivity” value was “**** (≥100-fold)”.
As to `C[C@H](NC(=O)[C@H]1C[C@H](c2ccccc2)CN1)C(=O)NCc1cc(N)n[nH]1` [compound 1336, (2R,4R)—N—((S)-1-(((3-Amino-1H-pyrazol-5-yl)methyl)amino)-1-oxopropan-2-yl)-4-phenylpyrrolidine-2-carboxamide Dihydrochloride], the values for the Ki on MASP-2 (CCP1-CCP2-SP), at mMASP-2 and at human α-thrombin (read-out: Thrombin Ki) were 10000 to 25000 nM, over 25000 nM and over 25 µM, respectively.
`Cc1nc(N)ccc1CNC(=O)[C@H](C)NC(=O)[C@@H]1C[C@@H](Cc2ccccc2)CN1` [compound 1282, (2S,4R)—N—((S)-1-(((6-Amino-2-methylpyridin-3-yl)methyl)amino)-1-oxopropan-2-yl)-4-benzylpyrrolidine-2-carboxamide]: the figures for the Ki at MASP-2 (CCP1-CCP2-SP), on mMASP-2 and on human α-thrombin (read-out: Thrombin Ki) were 10000 to 25000 nM, over 25000 nM and over 25 µM, respectively.
Consider `C[C@H](NC(=O)[C@H]1C[C@@H](c2cccc(CN)c2)CN1)C(=O)NCc1ccc(C(=N)N)cc1` [compound 1277, (2R,4S)-4-(3-(Aminomethyl)phenyl)-N-((S)-1-((4-carbamimidoylbenzyl)amino)-1-oxopropan-2-yl)pyrrolidine-2-carboxamide], for which the Ki is under 500 nM at MASP-2 (CCP1-CCP2-SP) (read-out: MASP-2 Ki), under 500 nM on mMASP-2 and under 0.5 µM on human α-thrombin (read-out: Thrombin Ki). Moreover, the “MASP-2 vs. thrombin selectivity” value at MASP-2 (CCP1-CCP2-SP) (setting [1]) is reported as “** (≥5.0 to <25-fold)”.
`C[C@H](NC(=O)[C@H](N)CCc1ccccc1)C(=O)NCc1cc(Cl)ccc1CO` [compound 1287, (R)-2-amino-N—((S)-1-((5-Chloro-2-(hydroxymethyl)benzyl)amino)-1-oxopropan-2-yl)-4-phenylbutanamide]: the inhibitory constant (Ki) is 10000 to 25000 nM on MASP-2 (CCP1-CCP2-SP), over 25000 nM on mMASP-2 and over 25 µM on human α-thrombin (read-out: Thrombin Ki).
With `Cc1cccc(C[C@@H]2CN[C@@H](C(=O)N[C@@H](C)C(=O)NCc3cc(Cl)cc(C)c3O)C2)c1` [compound 1369, (2R,4S)—N—((S)-1-((5-Chloro-2-hydroxy-3-methylbenzyl)amino)-1-oxopropan-2-yl)-4-(3-methylbenzyl)pyrrolidine-2-carboxamide Hydrochloride], the Ki was under 500 nM at MASP-2 (CCP1-CCP2-SP) (read-out: MASP-2 Ki), under 500 nM at mMASP-2 and over 25 µM at human α-thrombin (read-out: Thrombin Ki). Also, the “MASP-2 vs. thrombin selectivity” value on MASP-2 (CCP1-CCP2-SP) (setting [1]) was “**** (≥100-fold)”.
Take `Cc1ccc([C@H]2CCN[C@@H](C(=O)N[C@@H](C)C(=O)NCc3ccc(C(=N)N)cc3)C2)cc1` [compound 1249, (2R,4S)—N—((S)-1-((4-Carbamimidoylbenzyl)amino)-1-oxopropan-2-yl)-4-(p-tolyl)piperidine-2-carboxamide]: the figures for the Ki on MASP-2 (CCP1-CCP2-SP) (read-out: MASP-2 Ki), at mMASP-2 and on human α-thrombin (Thrombin Ki (μM)) were under 500 nM, under 500 nM and 10 to 25 µM, respectively. The “MASP-2 vs. thrombin selectivity” value at MASP-2 (CCP1-CCP2-SP) (setting [1]) is recorded as “**** (≥100-fold)”.
Turning to `Cc1cc(Cl)cc(CNC(=O)[C@H](C)NC(=O)[C@H]2C[C@H](c3ccccc3)CN2)c1O` [compound 1298, (2R,4R)—N—((S)-1-((5-chloro-2-hydroxy-3-methylbenzyl)amino)-1-oxopropan-2-yl)-4-phenylpyrrolidine-2-carboxamide Hydrochloride], the figures for the Ki at MASP-2 (CCP1-CCP2-SP) (read-out: MASP-2 Ki), on mMASP-2 and on human α-thrombin (read-out: Thrombin Ki) were under 500 nM, 2500 to 10000 nM and over 25 µM, respectively.
